Measurements reported in paper PMC5025780, “Copper(II) ions affect the gating dynamics of the 20S proteasome: a molecular and in cell study” (Scientific Reports, 2016).

Assays:
[1] = tested on: T1, Wild type 20S proteasome (yCP); assay: ChT-L peptidase activity of wild type yeast 20S proteasome (yCP); type: biochemical, Saccharomices Cerevisiae; details: one-way ANOVA, p < 0.05
T1 construct: made in house; host or cells: Saccharomyces cerevisiae
From the text: Figure 4 (A) Copper(II)-inhibited ChT-L peptidase activity of yCP (red bars) and the α3ΔN mutant (green bars); (pdb code: 4Q1S). […] (B) Top views of the α-rings of yCP. C); Magnified picture of the yCP gate. The first nine residues of the α3 subunit, which are not present in the α3ΔN mutant, are represented in magenta. Two histidines (α6-H14 and α1-H6) located at the entrance of the gate and near the N-terminal segment of the α3 subunit are evidenced in red. A third His residue (α3-H30) is far away from the gate and is not shown.
Purified human 20S proteasome (hCP) and the fluorogenic substrates Suc-LLVY-AMC, Z-Leu-Leu-Glu-AMC, and Ac-Arg-Leu-Arg-AMC used to assay the ChT-L, T-L, and C-L activity, were from Boston Biochem (Cambridge, MA, USA). Bathocuproinedisulfonic acid disodium salt (BCS), dithiothreitol (DTT), N-Acetyl-L-Cysteine (NAC), Sodium dodecylsulphate (SDS) as well as CuCl2 and Zn(NO3)2 were from Sigma-Aldrich (St. Louis, MO). Proteasome inhibitors Epoxomicin were obtained from Enzo Life Science. Wild type 20S proteasome isolated from Saccharomices Cerevisiae (yCP) and a mutant (α3ΔN) where nine residues of the N-terminal tail of the α3 subunit are deleted to provide a permanently open-gate conformations were isolated as described elsewhere.

[2] = tested on: T2, human 20S proteasome (hCP); assay: Native gel electrophoresis of purified hCP (assembly); details: 1 h incubation with 1 and 5 μM Cu(II)
T2 construct: purchased Boston Biochem (Cambridge, MA, USA)
Description: Currently, there are only few molecules known to inhibit the ChT-L, C-L, and T-L proteasome activities to the same extent. In principle, these agents are thought to inactivate the CP by upstream events involving protein damage (e.g. oxidation, disassembling of the enzyme into α and β subunits)[29][30] or, as recently reported, to allosteric effects involving proteasome gating. To address these issues, we performed native gel electrophoresis of purified hCP after 1 h incubation with 1 and 5 μM Cu(II) ions (Fig. 1B). […] Thus, we can exclude that Cu(II)-treated hCP could disassemble in α and β subunits. […] To this aim we i) assayed the presence of Cu(I) species in Cu(II)-loaded hCP samples by UV spectroscopy using bathocuproine disulfonic acid sodium salt (BCS) (see Figure S1 of Supporting Information) and ii) monitored the ROS production using fluorescein as a probe whose fluorescence intensity decreases upon reacting with ROS[32]. […]
Proteasome-enriched fractions were subjected to non denaturing native gel electrophoresis, as described elsewhere. […] Peptidolytic activity of proteasome-enriched fractions from cell lysates was evaluated after incubating the gels in a Suc-LLVY-AMC substrate dissolved in 50 mM Tris pH 8.0, 5 mM MgCl2, 1 mM DTT, 1 mM ATP, at 37 °C for 15 min. […] Images of the gels were acquired by Chemidoc (Biorad), and fluorescent bands were quantified by using the Image J software.

[3] = tested on: proteasome ChT-L activity in HeLa cells; assay: Proteasome-Glo Chymotrypsin-Like Cell-Based Assay in intact HeLa cells; set-up: species or system human; details: for Copper-induced proteasome inhibition in cells pretreated with NAC: 100 μM NAC pretreatment 24 h
Description: HeLa cells (human cervix carcinoma), were cultured in Dulbecco’s MEM medium (Life Technologies) supplemented with 10% of fetal calf serum (FCS, Life Technologies), glutamax (Invitrogen), 100 U/mL penicillin, 100 µg/mL streptomycin. Cells were routinely grown as stocks in 75 cm^2 flasks in a humidified atmosphere (95% air, 5% CO2) at 37 °C.
The ChT-L proteolytic activity of the proteasome in intact HeLa cells were determined using the Proteasome-Glo™ Chymotrypsin-Like Cell-Based Assay (Promega) according to manufacturer's instructions. Briefly, 800 cells/well were grown in 384 sterile multiwells (optical plate and white walls) in 50 μl of DMEM + FBS10% + PenStrep 1%. After 4 h of cell seeding, Cu(II) was added in cell medium in a concentration range 10–80 μM for 24 h. Then the medium was removed and replaced with FCS free medium. To determine whether or not the residual proteolytic measured was dependent on to proteasome rather than other proteases, we performed a control experiment with epoxomicin, a specific proteasome inhibitor. Epoxomicin (5 μM) was added to the cells 60 min before the proteasome activity assay. The substrate for the β5 ChT-L activity (Suc-LLVY-aminoluciferin) was dissolved in Proteasome-Glo™ Cell-Based Reagent and added to intact cells. After 2 min of shaking for permeabilization and further 10 min of incubation at 25 °C, luminescence was measured with a Varioskan Flash (Thermo) micro plate reader. Proteasome activity in intact cells was also measured by using the internally quenched fluorogenic substrate H2N-K-K(Dabcyl)-K-K-L-L-V-Y-G-E(Edans)-G-R-K-K-R-R-Q-R-R-R- (TED) as described elsewhere. […] The peptide purity was determined by MALDI-TOF experiments carried out with a Bruker Reflex III time-of-flight (TOF) mass spectrometer operating in the reflection mode, and the matrix used was α-cyano 4-hydroxycinnamic. […] TED internalization and cleavage in live HeLa cells was assayed by fluorescence microscopy (see Figure S8 of Supplementary Information).

With [Cl][Cu][Cl] [Cu(II), CuCl2] the “ChT-L activity of yCP at 5 μM versus 3 μM” value [1] was “significantly lower”, the “hCP assembly by native gel” value [2] was “only a single band is present at 700 kDa” and the “Copper-induced proteasome inhibition in cells pretreated with NAC” value ([3]; Cu(II) 80 μM) was “did not overcome proteasome inhibition”. For the same compound, the “ChT-L activity in HeLa cells (normalized to untreated controls)” value ([3]; Cu(II) 20 to 80 μM in medium, 24 h) was 60% and the “Copper-induced proteasome inhibition in cells pretreated with NAC” value ([3]; Cu(II) 20–40 μM) was “completely abolished”.
